Values of other authors, collected in patent US20150239832A1 (Neuro Pro Therapeutics, Inc., priority 2012, published 2015).

Columns and labels:
[1] = system: rat models of anxiety; conditions: Krystal et al., PLoS ONE 2012
[2] = system: rats; conditions: whole animal studies in rats
[3] = system: primate cortex
[4] = system: NKCC1 over KCC2
[5] = system: patients with medically intractable seizures; conditions: intravenously administered, intraoperative

Row | SMILES | effect on conditioned anxiety [1] | effect on kainic acid status [2] | potency in blocking epileptiform activity (focal bicuculline or 4-AP) and stimulation-evoked afterdischarges [3] | affinity for NKCC1 relative to KCC2 [4] | effect on interictal spiking and stimulation-evoked afterdischarges of the neocortex [5]
1 | CCCCNc1cc(C(=O)O)cc(S(N)(=O)=O)c1Oc1ccccc1 [bumetanide] | significantly reduce conditioned anxiety | more potent than furosemide | more potent than furosemide | significantly greater affinity for NKCC1 over KCC2 | –
2 | NS(=O)(=O)c1cc(C(=O)O)c(NCc2ccco2)cc1Cl [furosemide] | significantly reduce conditioned anxiety | – | – | – | blocked spontaneously occurring interictal spiking and stimulation-evoked afterdischarges
